The experiment concerns the target Metabotropic glutamate receptor 2 (Homo sapiens, UniProt Q14416). Description: [35S]GTPgammaS Binding Assay: The frozen cell membrane fraction prepared as described above was thawed before use, and the resultant was diluted with a buffer for a binding assay (final concentrations: 20 mM HEPES, 100 mM NaCl, 1 mM MgCl2, 3 uM GDP, 300 ug/mL saponin, 0.1% BSA). The compound of each example was added to a cell membrane fraction containing 1.8 to 3 ug/assay of membrane protein on a plate, followed by incubation at room temperature for 30 minutes. Thereafter, with glutamic acid (in a final concentration of 10 uM) added thereto, incubation was performed at room temperature for 15 minutes, and thereafter, [35S]GTPγS (in a final concentration of 0.8 kBq) and 588 ug WGA-SPA beads were added thereto, followed by incubation at room temperature for 1 hour. After the incubation, the plate was subjected to the centrifugal separation at 2,500 rpm and room temperature, and then, membrane cell binding radioactivity was measured with a top count. A [35S]GTPγS binding amount obtained in the presence of glutamic acid was defined as specific binding. On the basis of ratios of inhibiting the specific binding at various concentrations of the compounds of the respective examples, inhibition curves were obtained. […]. It counts as functional. Background: Binding of GTPγS marks nucleotide exchange on a G protein.

Molecules are shown by their SMILES.

Metabotropic glutamate receptor 2, sequence (Q14416 whole entry): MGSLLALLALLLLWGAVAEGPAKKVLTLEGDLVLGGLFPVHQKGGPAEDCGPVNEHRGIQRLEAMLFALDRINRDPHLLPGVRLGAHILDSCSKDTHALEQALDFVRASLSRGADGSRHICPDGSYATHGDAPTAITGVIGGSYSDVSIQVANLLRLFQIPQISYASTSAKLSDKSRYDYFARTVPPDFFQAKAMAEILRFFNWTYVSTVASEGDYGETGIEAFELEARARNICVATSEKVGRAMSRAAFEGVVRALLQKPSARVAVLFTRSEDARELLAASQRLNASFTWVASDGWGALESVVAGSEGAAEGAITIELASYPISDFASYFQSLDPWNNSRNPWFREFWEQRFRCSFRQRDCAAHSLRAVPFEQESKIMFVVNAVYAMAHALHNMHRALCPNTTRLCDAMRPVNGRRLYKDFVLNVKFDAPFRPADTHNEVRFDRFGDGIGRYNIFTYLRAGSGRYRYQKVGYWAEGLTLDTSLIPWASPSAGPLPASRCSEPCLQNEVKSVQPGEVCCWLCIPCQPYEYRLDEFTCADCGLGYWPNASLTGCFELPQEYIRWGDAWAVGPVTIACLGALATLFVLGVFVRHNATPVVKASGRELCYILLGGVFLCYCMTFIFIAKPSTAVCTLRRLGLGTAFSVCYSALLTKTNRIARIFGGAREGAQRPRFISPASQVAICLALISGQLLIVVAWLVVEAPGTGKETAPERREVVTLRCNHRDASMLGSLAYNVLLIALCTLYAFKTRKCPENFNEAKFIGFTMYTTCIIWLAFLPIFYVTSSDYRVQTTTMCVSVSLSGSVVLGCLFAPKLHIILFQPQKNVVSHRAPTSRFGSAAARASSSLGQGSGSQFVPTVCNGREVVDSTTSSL

Turning to `CCc1ccc(-c2nc(-c3cc(C)nc(C)c3)c3n2C[C@@H](C)OCC3)cc1OC`, the IC50 (usually the point on the concentration scale where inhibition reaches its midpoint) stood at 4.2 nM.

These data come from ChEMBL document CHEMBL3886984, “Tetrahydroimidazo(1,5-D)[1,4]oxazepine derivative” (2016).
